The source of these data is the Kinase Knowledgebase extract (Sharma et al. 2016).

The target in the experiment is MAPK14 (human) (UniProt Q16539). The experiment in a line: Inhibition of MAPK14 Kinase Activity.
Sequence of MAPK14 (human) (Q16539 whole entry, looked up): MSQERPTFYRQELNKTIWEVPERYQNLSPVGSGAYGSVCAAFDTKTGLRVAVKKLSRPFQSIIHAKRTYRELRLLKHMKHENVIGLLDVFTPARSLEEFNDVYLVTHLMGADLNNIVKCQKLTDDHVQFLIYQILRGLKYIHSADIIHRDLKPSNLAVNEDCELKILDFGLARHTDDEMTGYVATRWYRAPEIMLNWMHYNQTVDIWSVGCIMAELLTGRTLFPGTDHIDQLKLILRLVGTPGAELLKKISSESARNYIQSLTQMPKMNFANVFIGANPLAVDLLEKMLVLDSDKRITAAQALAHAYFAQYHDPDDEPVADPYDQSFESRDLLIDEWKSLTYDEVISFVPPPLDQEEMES
The term IC50 denotes the concentration that inhibits the measured activity by half. Read a high IC50 as a need for much substance. Regarding `Fc1ccc(-c2cc(-c3cnc(NC4CCOCC4)s3)cn3ccnc23)cc1`, the IC50 was 35.8 nM.
For the compound `CC[C@@H](C)Nc1ncc(-c2cc(-c3ccccc3C)c3nccn3c2)s1`, the IC50 was found to be 5 nM.
The result for `CC(C)Nc1ncc(-c2cc(-c3cccc(C#N)c3)c3nccn3c2)s1` reads 926 nM.
Consider `Cc1c(-c2cc(-c3ccccc3)c3nccn3c2)cnn1-c1ccccc1`, for which the IC50 came to 630 nM.
`CC(C)Nc1ncc(-c2cc(-c3ccccc3F)c3nncn3c2)s1` showed an IC50 of 13 nM.
Next, `CC[C@@H](C)Nc1ncc(-c2cc(-c3ccccc3)c3nc(CC(=O)OC)cn3c2)s1`: 33 nM; `CC(C)Nc1cnc(-c2cc(-c3ccccc3)c3nc(CCO)cn3c2)s1`: 38 nM; `CC(C)Nc1ncc(-c2cc(-c3cccc(F)c3)c3nncn3c2)s1`: 91 nM.
With `CNC(=O)c1cn2cc(-c3cnc(NC(C)C)s3)cc(-c3ccccc3)c2n1`, the IC50 stood at 37 nM.
Next, `CC[C@@H](C)Nc1ncc(-c2cc(-c3ccc(F)cc3F)c3nccn3c2)s1`: 5.7 nM; `CCCCNc1ncc(-c2cc(-c3ccccc3)c3nc(C(=O)OCC)cn3c2)s1`: 40 nM.
The result for `CC[C@@H](C)Nc1ncc(-c2cn3ccnc3c(-c3ccccc3O)n2)s1` reads 809 nM; that for `CC(C)Nc1ncc(-c2cc(-c3ccccc3C#N)c3nccn3c2)s1`, 669 nM.
Next, `CC(C)C(C)Nc1ncc(-c2cc(-c3ccccc3Cl)c3nccn3c2)s1` (configuration not stated): 39 nM; `CCOC(=O)c1cn2cc(-c3cnc(N[C@H](C)CC)s3)cc(-c3ccccc3F)c2n1`: 6 nM.
Regarding `Cc1cscc1-c1cc(-c2cnc(NC(C)C)s2)cn2ccnc12`, the IC50 was determined as 5.2 nM.
The result for `COC(=O)Cc1cn2cc(-c3cn[nH]c3)cc(-c3ccccc3)c2n1` reads 924 nM; that for `CC(C)Nc1ncc(-c2cc(-c3ccc(F)c(Cl)c3)c3nncn3c2)s1`, 604 nM; that for `CCOC(=O)c1ccccc1-c1cc(-c2cnc(NC(C)C)s2)cn2ccnc12`, 795 nM.
The result for `CC(C)Nc1ncc(-c2cc(-c3ccccc3)c3nncn3c2)s1` reads 581 nM.
Next, `CC(C)Nc1ncc(-c2cn3ccnc3c(-c3ccccc3)n2)s1`: 60 nM; `CC(C)Nc1ncc(-c2cc(-c3ccccc3Cl)c3nncn3c2)s1`: 15 nM.
The compound `Cc1ccccc1-c1cc(-c2cnc(NCCN(C)C)s2)cn2ccnc12` displayed an IC50 of 1780 nM.
The result for `Cc1ccc(C)c(-c2cc(-c3cnc(NC(C)C)s3)cn3ccnc23)c1` reads 1540 nM.
The result for `CC[C@@H](C)Nc1ncc(-c2cc(-c3ccccc3F)c3nccn3c2)s1` reads 3.4 nM; that for `CC[C@@H](C)Nc1ncc(-c2cc(-c3ccccc3Cl)c3nccn3c2)s1`, 5.9 nM.
Turning to `CC(C)C(C)Nc1ncc(-c2cc(-c3ccccc3)c3nccn3c2)s1` (configuration not stated), the IC50 was determined as 41.6 nM.
The result for `CCC(CC)Nc1ncc(-c2cc(-c3cccc(C#N)c3)c3nccn3c2)s1` reads 807 nM; that for `CC[C@@H](C)Nc1ncc(-c2cn3ccnc3c(-c3ccccc3F)n2)s1`, 23 nM; that for `CCOCC(C)Nc1ncc(-c2cn3ccnc3c(-c3ccccc3F)n2)s1` (configuration not stated), 40 nM.
Compound `Fc1ccccc1-c1nc(-c2cnc(NC3CCOCC3)s2)cn2ccnc12` yielded an IC50 of 109 nM.
`CC[C@@H](C)Nc1ncc(-c2cc(-c3cscc3C)c3nccn3c2)s1` registered an IC50 of 3 nM.
